Results as given in the CheMixHub viscosity set.
± gives the uncertainty stated by the source.

Test: xn = mol fraction of the nth substance listed

Cc1ccnc(C)c1 + C1CCCCC1
viscosity [mPa·s], 101 kPa
Details	x1 = 0.1087	x1 = 0.208	x1 = 0.3004	x1 = 0.407	x1 = 0.507	x1 = 0.6004	x1 = 0.6977	x1 = 0.8002	x1 = 0.9019
303 K	0.7378 ± 0.0052	0.6882 ± 0.005	0.6701 ± 0.0049	0.6574 ± 0.0049	0.6585 ± 0.005	0.6674 ± 0.0051	0.6805 ± 0.0053	0.7102 ± 0.0056	0.7412 ± 0.0059
313 K	0.6355 ± 0.0046	0.6204 ± 0.0045	0.6004 ± 0.0045	0.5891 ± 0.0045	0.5844 ± 0.0045	0.6004 ± 0.0047	0.6055 ± 0.0048	0.6285 ± 0.005	0.6543 ± 0.0053
323 K	0.5624 ± 0.0041	0.533 ± 0.004	0.5166 ± 0.0039	0.5092 ± 0.004	0.5073 ± 0.004	0.52 ± 0.0041	0.54 ± 0.0043	0.5502 ± 0.0045	0.583 ± 0.0048

ClC(Cl)=C(Cl)Cl + C1CCCCC1
303.15 K, 101 kPa
Details	viscosity [mPa·s]
x1 = 0.1695	0.762 ± 0.017
x1 = 0.2317	0.777 ± 0.007
x1 = 0.2698	0.75 ± 0.016
x1 = 0.3794	0.742 ± 0.014
x1 = 0.4194	0.74 ± 0.014
x1 = 0.4306	0.75 ± 0.007
x1 = 0.4966	0.738 ± 0.013
x1 = 0.5117	0.751 ± 0.007
x1 = 0.5532	0.741 ± 0.012
x1 = 0.5969	0.751 ± 0.007
x1 = 0.6182	0.746 ± 0.011
x1 = 0.6612	0.758 ± 0.007
x1 = 0.7242	0.764 ± 0.01
x1 = 0.7644	0.771 ± 0.007
x1 = 0.8345	0.775 ± 0.007
x1 = 0.8383	0.781 ± 0.009
x1 = 0.9204	0.8 ± 0.008

O=[N+]([O-])c1ccccc1 + C1CCCCC1
viscosity [mPa·s]
Details	298.15 K	303.15 K	308.15 K	313.15 K
101 kPa, x2 = 0.1079	–	1.461 ± 0.017	–	–
101 kPa, x2 = 0.2065	–	1.325 ± 0.015	–	–
101 kPa, x2 = 0.49	–	1.036 ± 0.012	–	–
101 kPa, x2 = 0.5924	–	0.9727 ± 0.011	–	–
101 kPa, x2 = 0.701	–	0.9147 ± 0.011	–	–
101 kPa, x2 = 0.8319	–	0.844 ± 0.01	–	–
101 kPa, x2 = 0.8998	–	0.8149 ± 0.0097	–	–
101.3 kPa, x1 = 0.099	0.9069 ± 0.024	0.8365 ± 0.023	0.7722 ± 0.021	0.7123 ± 0.02
101.3 kPa, x1 = 0.2037	0.9519 ± 0.025	0.8775 ± 0.023	0.8109 ± 0.022	0.7485 ± 0.02
101.3 kPa, x1 = 0.297	–	0.9369 ± 0.025	0.8638 ± 0.023	0.7984 ± 0.022
101.3 kPa, x1 = 0.3968	1.089 ± 0.028	1 ± 0.026	0.925 ± 0.024	0.8553 ± 0.023
101.3 kPa, x1 = 0.4968	1.16 ± 0.029	1.067 ± 0.027	–	0.9115 ± 0.024
101.3 kPa, x1 = 0.5973	1.247 ± 0.031	1.153 ± 0.029	1.065 ± 0.027	0.9854 ± 0.025
101.3 kPa, x1 = 0.6959	1.346 ± 0.033	1.241 ± 0.031	1.147 ± 0.029	1.061 ± 0.027
101.3 kPa, x1 = 0.8011	–	1.367 ± 0.034	1.264 ± 0.031	1.167 ± 0.029
101.3 kPa, x1 = 0.893	1.603 ± 0.039	1.481 ± 0.036	1.358 ± 0.033	1.254 ± 0.031
101.3 kPa, x2 = 0.1908	–	–	1.385 ± 0.022	–
